# Assay results as given in PubChem BioAssay (NCI).
#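 96-well plates; 48 h exposure; 5 concentrations. Endpoints by linear interpolation between flanking doses. Not reached: highest tested concentration assigned. TGI: concentration producing complete growth inhibition.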
# How the values were obtained:
# Assay in all cases: growth of human tumour cells (NCI), 48 h
# [1] = tested on: 786-0 renal
# [2] = tested on: A498 renal
# [3] = tested on: A549 NSCLC
# [4] = tested on: ACHN renal
# [5] = tested on: BT-549 breast
# [6] = tested on: CAKI-1 renal
# [7] = tested on: COLO 205 colon
# [8] = tested on: DU-145 prostate
# [9] = tested on: EKVX NSCLC
# [10] = tested on: HCC-2998 colon
# [11] = tested on: HCT-116 colon
# [12] = tested on: HCT-15 colon
# [13] = tested on: HL-60(TB) leukemia
# [14] = tested on: HOP-62 NSCLC
# [15] = tested on: HOP-92 NSCLC
# [16] = tested on: HS 578T breast
# [17] = tested on: HT29 colon
# [18] = tested on: IGROV1 ovarian
# [19] = tested on: K-562 leukemia
# [20] = tested on: KM12 colon
# [21] = tested on: LOX IMVI melanoma
# [22] = tested on: M14 melanoma
# [23] = tested on: MALME-3M melanoma
# [24] = tested on: MCF7 breast
# [25] = tested on: MDA-MB-231 breast
# [26] = tested on: MDA-MB-435
# [27] = tested on: MDA-N
# [28] = tested on: MOLT-4 leukemia
# [29] = tested on: NCI-H226 lung
# [30] = tested on: NCI-H23 lung
# [31] = tested on: NCI-H460 lung
# [32] = tested on: NCI-H522 lung
# [33] = tested on: NCI/ADR-RES ovarian
# [34] = tested on: OVCAR-4 ovarian
# [35] = tested on: OVCAR-5 ovarian
# [36] = tested on: OVCAR-8 ovarian
# [37] = tested on: PC-3 prostate
# [38] = tested on: RPMI-8226 leukemia
# [39] = tested on: RXF 393 renal
# [40] = tested on: SF-268 CNS
# [41] = tested on: SF-295 CNS
# [42] = tested on: SK-MEL-2 melanoma
# [43] = tested on: SK-MEL-28 melanoma
# [44] = tested on: SK-OV-3 ovarian
# [45] = tested on: SN12C renal
# [46] = tested on: SNB-19 CNS
# [47] = tested on: SNB-75 CNS
# [48] = tested on: SR leukemia
# [49] = tested on: SW-620 colon
# [50] = tested on: T-47D breast
# [51] = tested on: TK-10 renal
# [52] = tested on: U251 CNS
# [53] = tested on: UACC-257 melanoma
# [54] = tested on: UACC-62 melanoma
# [55] = tested on: UO-31 renal
# [56] = tested on: CCRF-CEM leukemia
# [57] = tested on: OVCAR-3 ovarian
# [58] = tested on: SF-539 CNS
# [59] = tested on: SK-MEL-5 melanoma
smiles,measurement,setting,value
COCN1C(=O)[C@@H]2CCCN2C(=O)c2ccc(Cl)cc21,TGI,[1],> 100 µM
same,TGI,[2],> 100 µM
same,TGI,[3],> 100 µM
same,TGI,[4],> 100 µM
same,TGI,[5],> 100 µM
same,TGI,[6],> 100 µM
same,TGI,[7],> 100 µM
same,TGI,[8],> 100 µM
same,TGI,[9],> 100 µM
same,TGI,[10],> 100 µM
same,TGI,[11],> 100 µM
same,TGI,[12],> 100 µM
same,TGI,[13],> 100 µM
same,TGI,[14],> 100 µM
same,TGI,[15],> 100 µM
same,TGI,[16],> 100 µM
same,TGI,[17],> 100 µM
same,TGI,[18],> 100 µM
same,TGI,[19],> 100 µM
same,TGI,[20],> 100 µM
same,TGI,[21],> 100 µM
same,TGI,[22],> 100 µM
same,TGI,[23],> 100 µM
same,TGI,[24],> 100 µM
same,TGI,[25],> 100 µM
same,TGI,[26],> 100 µM
same,TGI,[27],> 100 µM
same,TGI,[28],> 100 µM
same,TGI,[29],> 100 µM
same,TGI,[30],> 100 µM
same,TGI,[31],> 100 µM
same,TGI,[32],> 100 µM
same,TGI,[33],> 100 µM
same,TGI,[34],> 100 µM
same,TGI,[35],> 100 µM
same,TGI,[36],> 100 µM
same,TGI,[37],> 100 µM
same,TGI,[38],> 100 µM
same,TGI,[39],> 100 µM
same,TGI,[40],> 100 µM
same,TGI,[41],> 100 µM
same,TGI,[42],> 100 µM
same,TGI,[43],> 100 µM
same,TGI,[44],> 100 µM
same,TGI,[45],> 100 µM
same,TGI,[46],> 100 µM
same,TGI,[47],> 100 µM
same,TGI,[48],> 100 µM
same,TGI,[49],> 100 µM
same,TGI,[50],> 100 µM
same,TGI,[51],> 100 µM
same,TGI,[52],> 100 µM
same,TGI,[53],> 100 µM
same,TGI,[54],> 100 µM
same,TGI,[55],> 100 µM
COc1ccc(-c2nc(SCC(=O)N/N=C/c3ccc([N+](=O)[O-])cc3)[nH]c2-c2ccc(OC)cc2)cc1,TGI,[1],> 93.1 µM
same,TGI,[2],55.4 µM
same,TGI,[3],> 100 µM
same,TGI,[4],99.4 µM
same,TGI,[5],51.3 µM
same,TGI,[6],> 75.6 µM
same,TGI,[56],> 22.1 µM
same,TGI,[7],5.28 µM
same,TGI,[8],> 100 µM
same,TGI,[9],98.8 µM
same,TGI,[10],31.5 µM
same,TGI,[11],37.3 µM
same,TGI,[12],> 85.1 µM
same,TGI,[13],24.7 µM
same,TGI,[14],> 100 µM
same,TGI,[15],> 61.3 µM
same,TGI,[16],76.3 µM
same,TGI,[17],26.9 µM
same,TGI,[18],74.8 µM
same,TGI,[19],> 100 µM
same,TGI,[20],35.9 µM
same,TGI,[21],44.1 µM
same,TGI,[22],32.3 µM
same,TGI,[23],50.8 µM
same,TGI,[24],20.6 µM
same,TGI,[25],> 100 µM
same,TGI,[26],12.2 µM
same,TGI,[27],12.9 µM
same,TGI,[28],42.1 µM
same,TGI,[30],85.6 µM
same,TGI,[31],45.8 µM
same,TGI,[32],29.7 µM
same,TGI,[33],79.7 µM
same,TGI,[57],> 64.5 µM
same,TGI,[34],> 100 µM
same,TGI,[35],60.7 µM
same,TGI,[36],> 100 µM
same,TGI,[37],> 100 µM
same,TGI,[38],62 µM
same,TGI,[39],56.6 µM
same,TGI,[40],> 100 µM
same,TGI,[41],> 69 µM
same,TGI,[58],30.8 µM
same,TGI,[42],20.5 µM
same,TGI,[43],> 72 µM
same,TGI,[59],19.9 µM
same,TGI,[44],> 81.9 µM
same,TGI,[45],46.6 µM
same,TGI,[46],> 100 µM
same,TGI,[47],> 63.3 µM
same,TGI,[49],> 65.7 µM
same,TGI,[50],> 100 µM
same,TGI,[51],> 100 µM
same,TGI,[52],29.4 µM
same,TGI,[53],49.4 µM
same,TGI,[54],20.5 µM
same,TGI,[55],> 100 µM
COc1ccc2cc(NC(=O)Nn3cnnc3)ccc2c1,TGI,[1],> 100 µM
same,TGI,[2],> 100 µM
same,TGI,[3],> 100 µM
same,TGI,[4],> 100 µM
same,TGI,[5],> 100 µM
same,TGI,[6],> 100 µM
same,TGI,[56],> 100 µM
same,TGI,[7],> 100 µM
same,TGI,[8],> 100 µM
same,TGI,[9],> 100 µM
same,TGI,[10],> 100 µM
same,TGI,[11],> 100 µM
same,TGI,[12],> 100 µM
same,TGI,[13],> 100 µM
same,TGI,[14],> 100 µM
same,TGI,[15],> 100 µM
same,TGI,[16],> 100 µM
same,TGI,[17],> 100 µM
same,TGI,[18],> 100 µM
same,TGI,[19],> 100 µM
same,TGI,[20],> 100 µM
same,TGI,[21],> 100 µM
same,TGI,[22],> 100 µM
same,TGI,[23],> 100 µM
same,TGI,[24],> 100 µM
same,TGI,[25],> 100 µM
same,TGI,[26],> 100 µM
same,TGI,[27],> 100 µM
same,TGI,[28],> 100 µM
same,TGI,[29],> 100 µM
same,TGI,[30],> 100 µM
same,TGI,[31],> 100 µM
same,TGI,[32],> 100 µM
same,TGI,[57],> 100 µM
same,TGI,[34],> 100 µM
same,TGI,[35],> 100 µM
same,TGI,[36],> 100 µM
same,TGI,[37],> 100 µM
same,TGI,[38],> 100 µM
same,TGI,[40],> 100 µM
same,TGI,[41],> 100 µM
same,TGI,[58],> 100 µM
same,TGI,[42],> 100 µM
same,TGI,[43],> 100 µM
same,TGI,[59],> 100 µM
same,TGI,[44],> 100 µM
same,TGI,[46],> 100 µM
same,TGI,[47],> 100 µM
same,TGI,[48],> 100 µM
same,TGI,[49],> 100 µM
same,TGI,[50],> 100 µM
same,TGI,[51],> 100 µM
same,TGI,[52],> 100 µM
same,TGI,[53],> 100 µM
same,TGI,[54],> 100 µM
same,TGI,[55],> 100 µM
